Laboratory results as given in patent US7323541B2, “Polypeptide DNA thereof and use of the same” (Takeda Pharmaceutical Company Limited, priority 2001, dated 2008).
Positions count from the first letter of the chain named. Where no end group is shown, it is not given here.

Columns and labels:
[1] = test system: human colon cancer cell line LS 174T; assay: Growth of carcinomas of LS 174T in nude mice; type: in vivo, nude mice (BALB/cAnN-nu); conditions: osmotic pump 48 nmol/day for 14 days, 11th to 20th day, vs distilled water
Method: Effects on the growth of carcinomas by the human TGR23-2 ligand (1-20) in nude mice of human colon cancer cell line LS 174T were investigated.
The LS 174T dissolved in PBS (phosphate buffered saline) was subcutaneously administered at the ratio of 4×10^6 cells/200 μl/mouse to left abdominal of female nude mice (BALB/cAnN-nu, six weeks old). After three hours of administration, 100 μl of the human TGR23-2 ligand (1-20) dissolved in Otsuka distilled water at the concentration of 2 mM, or Otsuka distilled water was filled in the Micro-Osmotic Pump (alza, model 1002), and further embedded under the skin in the back of mouse under anesthesia (n=10 per each group). From this day, the human TGR23-2 ligand (1-20) was continuously released for 14 days at 48 nmol/day. From the third day of administration, dimensions of the carcinoma were measured, and carcinoma volume was calculated based on the formula: (major axis)×(minor axis)^2/2.

[2] = target: T1, human TGR23-1A expressing CHO cells (Homo sapiens, UniProt Q6W5P4, S241R); assay: Intracellular Ca ion concentration increasing activity using FLIPR; type: cell-based
T1 construct: expressed in transfected cells; host or cells: CHO dhfr- cells, pAKKO-TGR23-1A, clone No. 60
T1 sequence (Q6W5P4 1-371 S241R): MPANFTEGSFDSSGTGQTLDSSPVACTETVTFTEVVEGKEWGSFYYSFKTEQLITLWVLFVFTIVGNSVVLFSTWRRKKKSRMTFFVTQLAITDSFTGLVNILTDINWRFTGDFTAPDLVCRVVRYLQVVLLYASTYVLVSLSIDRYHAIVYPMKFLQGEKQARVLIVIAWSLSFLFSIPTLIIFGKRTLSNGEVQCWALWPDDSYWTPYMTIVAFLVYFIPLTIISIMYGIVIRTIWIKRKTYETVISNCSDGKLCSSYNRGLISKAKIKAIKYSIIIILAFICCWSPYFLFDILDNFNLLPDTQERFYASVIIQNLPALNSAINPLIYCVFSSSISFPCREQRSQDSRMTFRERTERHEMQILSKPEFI
Method: (§1) An enhancing activity of intracellular Ca^2+ release was assayed using FLIPR (Molecular Devices, Inc.). The CHO/TGR23-2 cells prepared in Example 1 and selected in Example 2 were plated on 96-well plate at 3×10^4 cells/well and cultured for 24 hours. A loading buffer was prepared by adding 1 vial of Fluo 3-AM to 10 ml of Hanks' solution (pH7.4) containing 2.5 mM Probenecid and 20 mM HEPES (hereafter, Hanks' solution (pH7.4) containing 2.5 mM Probenecid and 20 mM HEPES may be referred to as a washing buffer). The culture medium was discarded from the culture plate and 100 μl/well of the loading buffer were added to the cells. Then, the cells were incubated for 60 minutes in the incubator. After the loading buffer was removed from the culture plate and the cells were washed with the washing buffer, the plate was put in place of FLIPR. A sample was prepared by adding a sample buffer, which 2 mg/ml BSA and 1 mg/ml CHAPS were added to the washing buffer, to lyophilized product, stirring and treating by ultrasonication for 30 minutes, and transferred to 96-well sample plate. This sample plate was also put in place for assay. The enhancing activity of intracellular Ca^2+ release was measured as an increase of fluorescent intensity, which is raised by addition of the sample.
(§2) The human TGR23-2 ligand (1-20) having various concentrations was administered in accordance with the method described in Example 5, to the CHO cells, in which human TGR23-1A, human TGR23-1B, human TGR23-1C and human TGR23-1D are expressed. Subsequently, the intracellular Ca ion concentration increasing activity was measured using FLIPR.

[3] = target: T2, human TGR23-1D expressing CHO cells (Homo sapiens, UniProt Q6W5P4, Q344R); assay: as above; type: cell-based
T2 construct: expressed in transfected cells; host or cells: CHO dhfr- cells, pAKKO-TGR23-1D, clone No. 12
T2 sequence (Q6W5P4 1-371 Q344R): T1 sequence (Q6W5P4 1-371 S241R) with R241S, Q344R
Method: as §1, §2

[4] = target: T3, human TGR23-1C expressing CHO cells (Homo sapiens, UniProt Q6W5P4, N107I); assay: as above; type: cell-based
T3 construct: expressed in transfected cells; host or cells: CHO dhfr- cells, pAKKO-TGR23-1C, clone No. 9
T3 sequence (Q6W5P4 1-371 N107I): T1 sequence (Q6W5P4 1-371 S241R) with N107I, R241S
Method: as §1, §2

## SFRNGVGTGMKKTSFQRAKS [human TGR23-2 ligand (1-20)]
[1]
  carcinoma volume of LS 174T: has a tendency to increase
[2]
  intracellular Ca ion concentration increasing activity: the intracellular Ca ion level increased depending on the concentration of this ligand
[3]
  intracellular Ca ion concentration increasing activity: the intracellular Ca ion level increased depending on the concentration of this ligand
[4]
  intracellular Ca ion concentration increasing activity: the intracellular Ca ion level increased depending on the concentration of this ligand
